Earlier results, collected in patent publication US5965423A, “Human lysophospholipase” (Incyte Pharmaceuticals, Inc., priority 1998, dated 1999).

Target: T1, monomeric, 24 kD lysophospholipase (LPL) from rat liver (Rattus norvegicus, UniProt P70470)
T1 construct: isolated a monomeric, 24 kD LPL from rat liver; host or cells: rat liver (tissue-purified enzyme, Sugimoto et al. 1996)
Details: substrate 1-palmitoyl-glycero-3-phosphocholine; substrate dependence curve sigmoidal

T1 sequence (P70470 whole entry): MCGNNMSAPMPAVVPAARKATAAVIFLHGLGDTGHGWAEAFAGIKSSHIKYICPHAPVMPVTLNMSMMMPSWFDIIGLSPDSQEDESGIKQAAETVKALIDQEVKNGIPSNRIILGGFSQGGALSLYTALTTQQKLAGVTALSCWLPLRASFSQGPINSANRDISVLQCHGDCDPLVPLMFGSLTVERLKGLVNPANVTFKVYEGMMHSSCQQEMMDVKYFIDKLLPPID

## CCCCCCCCCCCCCCCC(=O)OCC(O)COP(=O)([O-])OCC[N+](C)(C)C (centres unmarked) [1-palmitoyl-glycero-3-phosphocholine]
  Km: 170 µM
  Vmax: 1.55 µM/min/mg
